# Measured values reported in paper PMC11711184, “Structural basis of THC analog activity at the Cannabinoid 1 receptor” (Nature Communications, 2025).
# Molecular target: T1, CB1 (CB1-Nluc) (Homo sapiens, UniProt P21554)
# T1 construct: gene CNR1; CB1 with C-terminal NanoLuc (CB1-Nluc), stably co-expressed in HEK293-TR cells with NES-venus-mini-Gsi (Gs-based chimera with Gi1 C-terminal residues) as BRET acceptor
# Experiment: NanoBRET venus-mini-Gsi recruitment
# Assay type: cell-based
# T1 sequence (P21554 whole entry): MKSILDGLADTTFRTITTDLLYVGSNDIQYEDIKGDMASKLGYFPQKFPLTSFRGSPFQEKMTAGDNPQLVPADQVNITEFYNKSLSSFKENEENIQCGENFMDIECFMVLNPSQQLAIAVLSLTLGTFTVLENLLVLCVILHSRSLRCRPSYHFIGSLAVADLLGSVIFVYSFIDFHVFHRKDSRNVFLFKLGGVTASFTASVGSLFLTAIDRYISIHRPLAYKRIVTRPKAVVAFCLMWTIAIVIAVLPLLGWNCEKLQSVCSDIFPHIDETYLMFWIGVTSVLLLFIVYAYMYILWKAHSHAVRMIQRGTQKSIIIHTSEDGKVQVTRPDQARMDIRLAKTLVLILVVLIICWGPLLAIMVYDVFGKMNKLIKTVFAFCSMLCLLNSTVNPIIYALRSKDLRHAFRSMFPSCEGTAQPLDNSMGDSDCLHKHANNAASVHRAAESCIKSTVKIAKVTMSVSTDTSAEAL
row,SMILES,EC50 [nM]
1,"CC(C)(CCCCCCN=C=S)c1cc(O)c2c(c1)OC(C)(C)[C@@H]1CC[C@@H](CO)C[C@@H]21 [AM841, (6aR,9 R,10aR)-9-(hydroxymethyl)-3-(8-isothiocyanato-2-methyloctan-2-yl)-6,6-dimethyl-6a,7,8,9,10,10a-hexahydro-6H-benzo[c]chromen-1-ol]",3.39
2,"CC1=CC[C@@H]2[C@@H](C1)c1c(O)cc(C(C)(C)CCCCCCBr)cc1OC2(C)C [AM11542, (6aR,10aR)-3-(8-bromo-2-methyloctan-2-yl)-6,6,9-trimethyl-6a,7,10,10a-tetrahydro-6H-benzo[c]chromen-1-ol]",3.39
3,"CCCCCCC(C)(C)c1cc(O)c2c(c1)OC(C)(C)[C@@H]1CC=C(CO)C[C@@H]21 [HU210, (6aR)-trans-3-(1,1-Dimethylheptyl)-6a,7,10,10a-tetrahydro-1-hydroxy-6,6-dimethyl-6H-dibenzo[b,d]pyran-9-methanol]",2.4
4,CCCCCCC(C)(C)c1cc(O)c2c(c1)OC(C)(C)[C@@H]1CC[C@@H](CO)C[C@@H]21 [HU243],2.04
5,"CCCC(C)(C)c1ccc2c(c1)OC(C)(C)[C@@H]1CC=C(C)C[C@@H]21 [JWH133, (6aR,10aR)-3-(1,1-Dimethylbutyl)-6a,7,10,10a-tetrahydro-6,6,9-trimethyl-6H-dibenzo[b,d]pyran]",1150
6,CCCCCCC(C)(C)c1cc(OC)c2c(c1)OC(C)(C)[C@@H]1CC=C(C)C[C@@H]21 [L759633],417
7,CCCCCCC(C)(C)c1cc(O)c2c(c1)OC(C)(C)C1CCC(=O)CC21 (centres unmarked) [Nabilone],13.8
8,CCCc1cc(O)c2c(c1)OC(C)(C)[C@@H]1CCC(C)=C[C@@H]21 [THCv],200
